Experimental data from patent US8519124B2, “Chemokine receptor antagonists and use thereof” (Ono Pharmaceutical Co., Ltd., priority 2005, dated 2013).

Tests used:
[1] = Measurement of maximum plasma level (Cmax) and bioavailability (BA); format: in vivo; conditions: male, Crl:CD(SD), po; rat plasma; orally administered solution 10 mg/kg, fasting
Method: Measurement of Maximum Plasma Level (CMax) and Bioavailability (BA)
A test compound is weighed, dissolved in Solutol (trade name; manufactured by BASF-TAKEDA Vitamins Ltd.)/propylene glycol=7/3 which is heated to 60° C. and adjusted to 20 mg/mL; thereafter, the test compound is diluted by 10 times with distilled water for injection, and further diluted by 2 times with saline solution, by which intravenously administered solution is eventually made. The test compound is weighed, dissolved in Solutol (trade name; manufactured by BASF-TAKEDA Vitamins Ltd.)/propylene glycol=7/3 which is heated to 60° C., and adjusted to 20 mg/mL; thereafter, the test compound is diluted by 10 times with distilled water for injection, by which orally administered solution is eventually made. Intravenous administration is performed by rapid single administration (n=3) of intravenously administered solution (1 mg/kg) from the tail vein of Crl:CD(SD) Rat (male, manufactured by CHARLES RIVER LABORATORIES JAPAN, INC). Oral administration is performed by forced administration (n=3) of orally administered solution (10 mg/kg) into the stomach of Crl:CD(SD) Rat (male, manufactured by CHARLES RIVER LABORATORIES JAPAN, INC.) using a sonde. The administration is conducted under fasting conditions; water is freely ingested. A 0.35 mL blood sample is taken from cervical vein by using Heparinized Syringe at 15 minutes, 30 minutes, 1 hour, 2 hours, 4 hours, 6 hours, 8 hours, and 24 hours after administration. The obtained blood is stored in ice, and after centrifugation at 12,000 rpm for 5 minutes, blood plasma is fractionated. The blood plasma is preserved at a temperature of −80° C. The sample of blood plasma preserved at a temperature of −80° C. is dissolved; inner standard solution (100 μL) and acetonitrile (2 mL) are added to the blood plasma sample 100 μL and stirred; and the sample is centrifuged at 2,500 rpm for 10 minutes. After the supernatant is evaporated to dryness by means of a centrifugal concentrator, 67% dimethyl sulfoxide solution (150 μL) is added to the residue and dissolves them again; and 20 μL of the solution is analyzed by means of LC/MS/MS.
The analysis by means of LC/MS/MS should be performed, for example, under the following conditions:
Measurement device: Waters 2795 (manufactured by Waters Corporation)
Analytical column: Unison UK-C18, 3.0 μm particle size, 2.0 mm×30 mm (manufactured by Imtakt Corporation)
Analytical column temperature: Room temperature
Moving bed: 5 mM IPC-PFAA-7 solution/acetonitrile (9/1→1/9)
Measurement device: Quatro micro API (manufactured by Micromass Communications Inc.)
Method for ionization: ES+
Capillary electric potential: 3.30 kV
Source temperature: 120° C.
Desolvation temperature: 350° C.
The monitor ion which was suitable for each sample was selected.
The concentration transition in the rat blood plasma of the test compound is analyzed by means of non-compartment analysis method by using WinNonlin 4.0.1 (manufactured by Pharsight Corporation) to calculate the maximum blood concentration Cmax and the area under the blood concentration curve AUC.
BA is calculated by means of the following formula: BA(%)={(AUCp.o./Dosep.o.)/(AUCi.v./Dosei.v.)}×100
AUCp.o.: AUC in oral administration
Dosep.o.: Amount of the drug orally administered
AUCi.v.: AUC in intravenous administration
Dosei.v.: Amount of the drug intravenously administered

CXCR4 = molecular target: T1, CXCR4 (Homo sapiens, UniProt P61073); experiment: Study for inhibition of binding human SDF-1 to CEM cells (125I-SDF-1); conditions: 125I-SDF-1 binding to CEM cells
T1 construct: a human T cell strain in which CXCR4 is known to be expressed; endogenous in cells; host or cells: CEM cells (human T cell strain)
T1 sequence (P61073 whole entry): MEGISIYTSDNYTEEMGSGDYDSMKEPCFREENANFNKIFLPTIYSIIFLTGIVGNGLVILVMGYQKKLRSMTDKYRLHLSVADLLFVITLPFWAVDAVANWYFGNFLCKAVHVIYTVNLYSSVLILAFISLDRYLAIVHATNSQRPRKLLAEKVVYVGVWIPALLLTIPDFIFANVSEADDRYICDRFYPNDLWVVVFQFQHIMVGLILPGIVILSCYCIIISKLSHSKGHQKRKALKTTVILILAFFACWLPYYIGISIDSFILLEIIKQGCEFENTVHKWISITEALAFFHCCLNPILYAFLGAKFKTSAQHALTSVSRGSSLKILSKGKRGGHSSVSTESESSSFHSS
Excerpt: Specifically, as a system of screening a compound that inhibits the binding between SDF-1 and CXCR4, for example a system of measuring the binding between iodine-labeled SDF-1 and a human T cell strain in which CXCR4 is known to be expressed is operable. The identical idea is possible since macrophage (R5) HIV and RANTES, MIP-1α, and MIP-1β all bind to CCR5.
Study for Inhibition of Binding Human SDF-1 to CEM Cells
To human T cell strain CEM cells in a binding buffer (containing HEPES and BSA), the test compound and ^125I-SDF-1 (NEN) were added and the mixture was incubated at 4° C. for 60 minutes. The reacted CEM cells were rapidly filtrated with a GF/B membrane filter plate (Packard) to adsorb. The plate was washed with PBS three times and then dried. Microscint+20 (Packard) was added thereto. An amount of the radioactivity bound to the CEM cells was measured using Top Count (Packard) and inhibition (%) of the test compound was calculated according to the following equation: Inhibition={(Et−Ea)/(Et−Ec)}×100
Et: amount of radioactivity when the test compound is not added,
Ec: amount of radioactivity when non-radioactive SDF-1 (Pepro Tech) is added in an amount of 1000 times as much as ^125I-SDF-1 as a test compound, and
Ea: amount of radioactivity when the test compound is added.

| SMILES | Cmax [1] | IC50 (CXCR4) |
| --- | --- | --- |
| O=C(CC(=O)N1CCC2(CCN(C3CCCCC3)CC2)C1)N1CCC(N(Cc2ncc[nH]2)Cc2ncc[nH]2)CC1 [Example 65 (4), 1-[3-(8-cyclohexyl-2,8-diazaspiro[4.5]dec-2-yl)-3-oxopropanoyl]-N,N-bis(1H-imidazol-2-ylmethyl)-4-piperidinamine] | 0.42 µg/mL |  |
| CC(C)(C)CN1CCC2(CC1)CCN(C(=O)Cc1ccc(CN(Cc3ncc[nH]3)Cc3ncc[nH]3)cc1)C2 [Example 40 (68), 1-(4-{2-[8-(2,2-dimethylpropyl)-2,8-diazaspiro[4.5]dec-2-yl]-2-oxoethyl}phenyl)-N,N-bis(1H-imidazol-2-ylmethyl)methanamine] | 0.175 µg/mL |  |
| CCC(CC)N1CCC2(CCN(C(=O)c3ccc(CN(Cc4ncc[nH]4)Cc4nccn4C)cc3)C2)CC1 [Example 40 (72), 1-(4-{[8-(1-ethylpropyl)-2,8-diazaspiro[4.5]dec-2-yl]carbonyl}phenyl)-N-(1H-imidazol-2-ylmethyl)-N-[(1-methyl-1H-imidazol-2-yl)methyl]methanamine] | 0.157 µg/mL |  |
| CC(C)CN1CCC2(CCN(Cc3ccc(C(=O)N(Cc4ncc[nH]4)Cc4ncc[nH]4)cc3)CC2)C1 [Example 8 (113), N,N-bis(1H-imidazol-2-ylmethyl)-4-[(2-isobutyl-2,8-diazaspiro[4.5]dec-8-yl)methyl]benzamide] | 0.08 µg/mL | 0.015 µM |
